Experimental data: ChEMBL document CHEMBL1146192, “Substituted chromones and quinolones as potent melanin-concentrating hormone receptor 1 antagonists” (Bioorg Med Chem Lett, 2006)

Columns and labels:
Type in all cases: ADME, organism-based
[1] = Volume of distribution in Sprague-Dawley rat at 2.5 mg/kg, iv and 10 mg/kg, po; conditions: in vivo, read-out: Vdss
[2] = Oral bioavailability in Sprague-Dawley rat at 2.5 mg/kg, iv and 10 mg/kg, po; conditions: in vivo
[3] = AUC in Sprague-Dawley rat at 10 mg/kg, po; design: dose 10 mg/kg, route oral; conditions: plasma
[4] = Ratio of drug level in Sprague-Dawley rat brain against plasma at 2.5 mg/kg, iv and 10 mg/kg, po after 1 hr; conditions: read-out: BPR
[5] = Ratio of drug level in Sprague-Dawley rat brain against plasma at 2.5 mg/kg, iv and 10 mg/kg, po after 4 hrs; conditions: read-out: BPR

## CN(C)[C@@H]1CCN(c2ccc(-c3coc4cc(-c5ccc(Cl)cc5)ccc4c3=O)cn2)C1.Cl
[1]
  Vd: 58 L/kg
[2]
  bioavailability: 66%
[3]
  AUC: 859 ng·h/mL
[4]
  Kp at 1 h: 9.5
[5]
  Kp at 4 h: 25
